The text below walks through data of publication PMC10619135, “Virtual screening, identification and in vitro validation of small molecule GDP-mannose dehydrogenase inhibitors” (RSC Chemical Biology, 2023).

The target in experiment [1] is T1, GDP-mannose dehydrogenase (GMD) (Pseudomonas aeruginosa, UniProt P11759).
T1 construct: gene algD; recombinant GMD
The experiment can be described thus: intact protein ESI-MS. Format: binding. The following applies: covalent; overnight incubation; single adduct; site Lys324 only predicted by docking.

The target in experiment [2] is T1, GDP-mannose dehydrogenase (GMD). Nature of the experiment: NADH fluorescence assay, dilution series. Format: biochemical.

T1 sequence (P11759 whole entry): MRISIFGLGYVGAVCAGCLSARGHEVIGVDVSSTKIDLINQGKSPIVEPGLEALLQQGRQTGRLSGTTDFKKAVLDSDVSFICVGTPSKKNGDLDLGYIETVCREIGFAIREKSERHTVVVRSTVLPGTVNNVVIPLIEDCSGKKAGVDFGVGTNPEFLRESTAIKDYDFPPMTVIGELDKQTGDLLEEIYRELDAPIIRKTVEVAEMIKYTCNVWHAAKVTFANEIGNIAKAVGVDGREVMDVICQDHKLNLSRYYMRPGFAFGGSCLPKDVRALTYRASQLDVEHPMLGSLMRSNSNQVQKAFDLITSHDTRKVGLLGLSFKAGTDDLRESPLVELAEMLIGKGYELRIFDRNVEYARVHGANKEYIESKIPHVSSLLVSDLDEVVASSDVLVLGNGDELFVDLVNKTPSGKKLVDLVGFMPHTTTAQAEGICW

In general, IC50 refers to the midpoint of a concentration-inhibition curve. The low end stands for greater potency, the high end for weaker potency. With `CC(=O)C1=C(O)C=C2Oc3c4c(c(C)c(O)c3[C@@]2(C)C1=O)O/C(=C\c1ccc(O)cc1)C4=O` [compound 13, 13], in experiment [1], the “intact protein ESI-MS” value is “ESI-MS indicated clear evidence of a single GMD-13 adduct”. This compound also displayed an IC50 in experiment [2] of 16.7 ± 2.12 µM.
